Measurements from ChEMBL document CHEMBL3885861, “Open TG-GATES”.

Species on record: Rattus norvegicus
Assay: Open TG-GATES - Regimen: Single
Assay type: toxicity, organism-based, Sprague-Dawley
Parameters: regimen Single, gender Male, age 6 weeks
Details: in vivo, po, 750 mg/kg, route gavage, dose level High; for APTT / Bas / Eos / Fbg / Hb / Ht / Lym / MCH / MCHC / MCV / Mono / Neu / PT / Plat / RBC / Ret / WBC: tissue Blood; for KIDNEY_L / KIDNEY_R / KIDNEY_TOTAL: tissue Kidney; for LIVER: tissue Liver; for A/G / ALP / ALT / AST / BUN / CRE / Ca / Cl / DBIL / GLC / IP / K / LDH / Na / PL / RALB / TBIL / TC / TG / TP / gamma-GTP: tissue Plasma

`CN(C/C=C/C#CC(C)(C)C)Cc1cccc2ccccc12` [TERBINAFINE] showed a TERMINAL_BW (3 h) of 226.5 g, an APTT (3 h) of 19.1 s and a Bas (3 h) of 0.4%. It also gave an Eos (3 h) of 0.8%, a Fbg (3 h) of 220.4 mg/dL and a Hb (3 h) of 12.9 g/dL. For the same compound, the Ht (3 h) was 38.4%, the Lym (3 h) was 76.8% and the MCH (3 h) was 21.1 pg. It also gave an MCHC (3 h) of 33.5%, an MCV (3 h) of 63 fL and a Mono (3 h) of 1.8%. For the same compound, the Neu (3 h) was 19.8%, the PT (3 h) was 12.3 s and the Plat (3 h) was 120 x10_4/uL. For the same compound, the RBC (3 h) was 610.2 x10_4/ul, the Ret (3 h) was 7.2% and the WBC (3 h) was 85.9 x10_2/uL. For the same compound, the KIDNEY_L (3 h) was 1 g, the KIDNEY_R (3 h) was 1 g and the KIDNEY_TOTAL (3 h) was 2 g. For the same compound, the LIVER (3 h) was 9.8 g, the A/G (3 h) was 1.7 and the ALP (3 h) was 978.4 IU/L. The ALT (3 h) was 35.6 IU/L, the AST (3 h) was 69.2 IU/L and the BUN (3 h) was 9.8 mg/dL. The CRE (3 h) was 0.4 mg/dL, the Ca (3 h) was 10.6 mg/dL and the Cl (3 h) was 103 meq/L. The DBIL (3 h) was 0.08 mg/dL, the GLC (3 h) was 204.6 mg/dL and the IP (3 h) was 9.1 mg/dL. The K (3 h) was 3.7 meq/L, the LDH (3 h) was 180.8 IU/L and the Na (3 h) was 141.6 meq/L. It also gave a PL (3 h) of 128.6 mg/dL, an RALB (3 h) of 3.4 g/dL and a TBIL (3 h) of 0.1 mg/dL. The TC (3 h) was 76.4 mg/dL, the TG (3 h) was 36 mg/dL and the TP (3 h) was 5.5 g/dL. The gamma-GTP (3 h) was 1 IU/L, the TERMINAL_BW (6 h) was 226.5 g and the APTT (6 h) was 18 s. It also gave a Bas (6 h) of 0.6%, an Eos (6 h) of 0.8% and a Fbg (6 h) of 217.6 mg/dL. It also gave a Hb (6 h) of 12.8 g/dL, a Ht (6 h) of 37.9% and a Lym (6 h) of 77.6%. It also gave an MCH (6 h) of 21.6 pg, an MCHC (6 h) of 33.8% and an MCV (6 h) of 63.8 fL. The Mono (6 h) was 3%, the Neu (6 h) was 18% and the PT (6 h) was 12.2 s. It also gave a Plat (6 h) of 124.3 x10_4/uL, an RBC (6 h) of 595 x10_4/ul and a Ret (6 h) of 7.2%. The WBC (6 h) was 79 x10_2/uL, the KIDNEY_L (6 h) was 1 g and the KIDNEY_R (6 h) was 1 g. For the same compound, the KIDNEY_TOTAL (6 h) was 2 g, the LIVER (6 h) was 9.7 g and the A/G (6 h) was 1.7. For the same compound, the ALP (6 h) was 823.4 IU/L, the ALT (6 h) was 35.4 IU/L and the AST (6 h) was 70 IU/L. The BUN (6 h) was 12.4 mg/dL, the CRE (6 h) was 0.4 mg/dL and the Ca (6 h) was 10.5 mg/dL. It also gave a Cl (6 h) of 103.2 meq/L, a DBIL (6 h) of 0.082 mg/dL and a GLC (6 h) of 206.2 mg/dL. The IP (6 h) was 9.6 mg/dL, the K (6 h) was 3.9 meq/L and the LDH (6 h) was 174.2 IU/L. For the same compound, the Na (6 h) was 141 meq/L, the PL (6 h) was 121.2 mg/dL and the RALB (6 h) was 3.5 g/dL. For the same compound, the TBIL (6 h) was 0.1 mg/dL, the TC (6 h) was 68.2 mg/dL and the TG (6 h) was 36.6 mg/dL. For the same compound, the TP (6 h) was 5.5 g/dL, the gamma-GTP (6 h) was 0.8 IU/L and the TERMINAL_BW (9 h) was 225.4 g. It also gave an APTT (9 h) of 18.8 s, a Bas (9 h) of 0.6% and an Eos (9 h) of 1%. For the same compound, the Fbg (9 h) was 221.6 mg/dL, the Hb (9 h) was 12.8 g/dL and the Ht (9 h) was 38.2%. It also gave a Lym (9 h) of 73.2%, an MCH (9 h) of 21.3 pg and an MCHC (9 h) of 33.6%. It also gave an MCV (9 h) of 63.6 fL, a Mono (9 h) of 2.6% and a Neu (9 h) of 22.6%. For the same compound, the PT (9 h) was 12.3 s, the Plat (9 h) was 114 x10_4/uL and the RBC (9 h) was 601.8 x10_4/ul. It also gave a Ret (9 h) of 6.8%, a WBC (9 h) of 85 x10_2/uL and a KIDNEY_L (9 h) of 1 g. It also gave a KIDNEY_R (9 h) of 1 g, a KIDNEY_TOTAL (9 h) of 2 g and an LIVER (9 h) of 9.3 g. It also gave an A/G (9 h) of 1.7, an ALP (9 h) of 1027.6 IU/L and an ALT (9 h) of 32.8 IU/L. The AST (9 h) was 64.2 IU/L, the BUN (9 h) was 12.2 mg/dL and the CRE (9 h) was 0.4 mg/dL. It also gave a Ca (9 h) of 10 mg/dL, a Cl (9 h) of 103.6 meq/L and a DBIL (9 h) of 0.07 mg/dL. For the same compound, the GLC (9 h) was 205.6 mg/dL, the IP (9 h) was 10.4 mg/dL and the K (9 h) was 4 meq/L. The LDH (9 h) was 163.2 IU/L, the Na (9 h) was 141.2 meq/L and the PL (9 h) was 112.8 mg/dL. For the same compound, the RALB (9 h) was 3.4 g/dL, the TBIL (9 h) was 0.1 mg/dL and the TC (9 h) was 57.6 mg/dL. The TG (9 h) was 24.4 mg/dL, the TP (9 h) was 5.4 g/dL and the gamma-GTP (9 h) was 1 IU/L. It also gave a TERMINAL_BW (24 h) of 233.7 g, an APTT (24 h) of 18.6 s and a Bas (24 h) of 0.8%. For the same compound, the Eos (24 h) was 1%, the Fbg (24 h) was 216.6 mg/dL and the Hb (24 h) was 13.1 g/dL. For the same compound, the Ht (24 h) was 38.5%, the Lym (24 h) was 78.8% and the MCH (24 h) was 21.7 pg. For the same compound, the MCHC (24 h) was 34%, the MCV (24 h) was 64.1 fL and the Mono (24 h) was 3.4%. It also gave a Neu (24 h) of 15.6%, a PT (24 h) of 12.3 s and a Plat (24 h) of 122.8 x10_4/uL. For the same compound, the RBC (24 h) was 601.6 x10_4/ul, the Ret (24 h) was 6.4% and the WBC (24 h) was 81.1 x10_2/uL. It also gave a KIDNEY_L (24 h) of 1.1 g, a KIDNEY_R (24 h) of 1.1 g and a KIDNEY_TOTAL (24 h) of 2.2 g. For the same compound, the LIVER (24 h) was 10.8 g, the A/G (24 h) was 1.8 and the ALP (24 h) was 1101 IU/L. The ALT (24 h) was 51.6 IU/L, the AST (24 h) was 89.4 IU/L and the BUN (24 h) was 13.2 mg/dL. The CRE (24 h) was 0.4 mg/dL, the Ca (24 h) was 10.3 mg/dL and the Cl (24 h) was 103.6 meq/L. The DBIL (24 h) was 0.076 mg/dL, the GLC (24 h) was 203.4 mg/dL and the IP (24 h) was 8.6 mg/dL. For the same compound, the K (24 h) was 3.7 meq/L, the LDH (24 h) was 203.6 IU/L and the Na (24 h) was 141.6 meq/L. For the same compound, the PL (24 h) was 106 mg/dL, the RALB (24 h) was 3.6 g/dL and the TBIL (24 h) was 0.1 mg/dL. It also gave a TC (24 h) of 57.8 mg/dL, a TG (24 h) of 29.2 mg/dL and a TP (24 h) of 5.5 g/dL. For the same compound, the gamma-GTP (24 h) was 1.8 IU/L.
